Consider 19 molecules from US7659270B2, “Hepatitis C virus inhibitors” (Bristol-Myers Squibb Company, priority 2006, dated 2010).

This assay deals with HCV 1b-377-neo replicon cells. The assay can be described thus: HCV replicon assay (HCV 1b-377-neo replicon cells). Format: cell-based, Hepatitis C virus genotype 1b. As for the experimental part:
An HCV Replion assay was utilized in the present disclosure, and was prepared, conducted and validated as described in commonly owned PCT/US2006/022197 and in O'Boyle et. al. Antimicrob Agents Chemother. April 2005;49(4): 1346-53.
HCV 1b-377-neo replicon cells were used to test the currently described compound series as well as cells resistant to compound A due to a Y2065H mutation in NS5A (described in application PCT/US2006/022197). The compounds tested were determined to have more than 10-fold less inhibitory activity on cells resistant to compound A than wild-type cells indicating a related mechanism of action between the two compound series. Thus, the compounds of the present disclosure can be effective to inhibit the function of the HCV NS5A protein and are understood to be as effective in combinations as previously described in application PCT/US2006/022197 and commonly owned WO/04014852. Further, the compounds of the present disclosure can be effective against the HCV 1b genotype. It should also be understood that the compounds of the present disclosure can inhibit multiple genotypes of HCV. […] In one embodiment compounds of the present disclosure are active against the 1a, 1b, 2a, 2b, 3a, 4a, and 5a genotypes.
On the technique in general: A replicon is a self-replicating genome or part of one, used to study replication in cells.

Where [1] appears, read: Hepatitis C virus, read-out: EC50 range against HCV 1b (Range).

Where two headings read alike, the source gives them in different places.

`CN(C)[C@@H](C(=O)N1CCC[C@H]1c1nc(-c2ccc(-c3ccc(-c4cn(C)c([C@@H]5CCCN5C(=O)[C@@H](c5ccccc5)N(C)C)n4)cc3)cc2)cn1C)c1ccccc1` (single isomer, unassigned) [Example 151 isomer 1]: where the note is “listed as 151 isomer 1, read-out: EC50 range against HCV 1b (Range)”, the EC50 (commonly the concentration at which the effect is half-maximal) is 1 to 99 nM.

Turning to `CN(C)[C@@H](C(=O)N1CCC[C@H]1c1nc(-c2ccc(-c3ccc(-c4cn(C)c([C@@H]5CCCN5C(=O)[C@@H](c5ccccc5)N(C)C)n4)cc3)cc2)cn1C)c1ccccc1` (single isomer, unassigned) [Example 151 isomer 2], where the note is “listed as 151 isomer 2, read-out: EC50 range against HCV 1b (Range)”, the EC50 is 100 to 999 nM.

With `CN(C)[C@@H](C(=O)N1CCC[C@H]1c1ncc(-c2ccc(-c3ccc(-c4cnc([C@@H]5CCCN5C(=O)[C@@H](c5ccccc5)N(C)C)[nH]4)cc3)cc2)[nH]1)c1ccccc1` [Example 1, (1R,1′R)-2,2′-(4,4′-biphenyldiylbis(1H-imidazole-5,2-diyl(2S)-2,1-pyrrolidinediyl))bis(N,N-dimethyl-2-oxo-1-phenylethanamine)], under setting [1], the EC50 was 0.01 to 0.999 nM.

As for `COC(=O)N[C@@H](C(=O)N(C)[C@@H](C)c1ncc(-c2ccc(-c3ccc(-c4cnc([C@H](C)N(C)C(=O)[C@H](NC(=O)OC)c5ccccc5)[nH]4)cc3)cc2)[nH]1)c1ccccc1` [Example 24-18-1, dimethyl (4,4′-biphenyl-diylbis(1H-imidazole-5,2-diyl(1S)-1,1-ethane-diyl(methyli-mino)(1R)-2-oxo-1-phenyl-2,1-ethane-diyl)))biscar-bamate], the EC50 under setting [1] was 0.01 to 0.999 nM.

As to `C[C@@H](c1ncc(-c2ccc(-c3ccc(-c4cnc([C@H](C)N(C)C(=O)[C@@H](c5ccccc5)N(C)C)[nH]4)cc3)cc2)[nH]1)N(C)C(=O)[C@@H](c1ccccc1)N(C)C` [Example 24-18-2, (2R,2′R)-N,N′-(4,4′-biphenyl-diylbis(1H-imidazole-5,2-diyl(1S)-1,1-ethane-diyl))bis(2-(dimethyl-amino)-N-methyl-2-phenyl-acetamide)], the EC50 under setting [1] lay within 0.01 to 0.999 nM.

On to `C[C@@H](c1ncc(-c2ccc(-c3ccc(-c4cnc([C@H](C)N(C)C(=O)[C@@H](c5ccccc5)N5CCCCC5)[nH]4)cc3)cc2)[nH]1)N(C)C(=O)[C@@H](c1ccccc1)N1CCCCC1` [Example 24-18-3, (2R,2′R)-N,N′-(4,4′-biphenyl-diylbis(1H-imidazole-5,2-diyl(1S)-1,1-ethane-diyl))bis(N-meth-yl-2-phenyl-2-(1-piperi-dinyl)acet-amide)], for which the EC50 under setting [1] was in the range of 0.01 to 0.999 nM.

For the molecule `COC(=O)N[C@@H](C(=O)N(C)[C@@H](C)c1ncc(-c2ccc(-c3ccc(-c4cnc([C@@H]5CCCN5C(=O)[C@H](NC(=O)OC)c5ccccc5)[nH]4)cc3)cc2)[nH]1)c1ccccc1` [Example 24-18-4, methyl ((1R)-2-((2S)-2-(5-(4′-(2-((1S)-1-(((2R)-2-((methoxy-carbonyl)a-mino)-2-phenyl-acetyl)(meth-yl)ami-no)ethyl)-1H-imidazol-5-yl)-4-bi-phenylyl)-1H-imidazol-2-yl)-1-pyrrolidi-nyl)-2-oxo-1-phenyl-ethyl)carba-mate], the half-maximal effective concentration (EC50) under setting [1] lay within 0.01 to 0.999 nM.

As to `C[C@@H](c1ncc(-c2ccc(-c3ccc(-c4cnc([C@@H]5CCCN5C(=O)[C@@H](c5ccccc5)N(C)C)[nH]4)cc3)cc2)[nH]1)N(C)C(=O)[C@@H](c1ccccc1)N(C)C` [Example 24-18-5, (2R)-2-(dimethyl-amino)-N-((1S)-1-(5-(4′-(2-((2S)-1-((2R)-2-(dimethyl-amino)-2-phenyl-acetyl)-2-pyrroli-dinyl)-1H-imida-zol-5-yl)-4-biphenyl-yl)-1H-imidazol-2-yl)ethyl)-N-methyl-2-phenyl-acetamide], under setting [1], the EC50 was 0.01 to 0.999 nM.

`COC(=O)N[C@@H](C(=O)N1CCC[C@H]1c1ncc(-c2ccc(-c3ccc(-c4cnc([C@@H]5CCCN5C(=O)Cc5ccccc5)[nH]4)cc3)cc2)[nH]1)c1ccccc1` [Example 28, methyl((1R)-2-oxo-1-phenyl-2-((2S)-2-(5-(4′-(2-((2S)-1-(phenylacetyl)-2-pyrrolidinyl)-1H-imidazol-5-yl)-4-biphenylyl)-1H-imidazol-2-yl)-1-pyrrolidinyl)ethyl)carbamate]: under setting [1], the 50% effective concentration (EC50) lay in the range of 1 to 99 nM.

For the molecule `Cc1cc(-c2cnc([C@@H]3CCCN3C(=O)[C@@H](c3ccccc3)N(C)C)[nH]2)ccc1-c1ccc(-c2cnc([C@@H]3CCCN3C(=O)[C@@H](c3ccccc3)N(C)C)[nH]2)cc1C` [Example 121, (1R,1′R)-2,2′-((2,2′-dimethyl-4,4′-biphenyldiyl)bis(1H-imidazole-5,2-diyl(2S)-2,1-pyrrolidinediyl))bis(N,N-dimethyl-2-oxo-1-phenylethanamine)], the EC50 under setting [1] fell in the range of 0.01 to 0.999 nM.

In the case of `COC(=O)N[C@@H](C(=O)N1CCC[C@H]1c1ncc(-c2ccc(-c3ccc(-c4cnc([C@@H]5CCCN5C(=O)[C@@H](c5ccccc5)N(C)C)[nH]4)cc3C)cc2)[nH]1)c1ccccc1` [Example 126, methyl ((1R)-2-((2S)-2-(5-(4′-(2-((2S)-1-((2R)-2-(dimethylamino)-2-phenylacetyl)-2-pyrolidinyl)-1H-imidazol-5-yl)-2′-methyl-4-biphenylyl)-1H-imidazol-2-yl)-1-pyrrolidinyl)-2-oxo-1-phenylethyl)carbamate], the EC50 (read-out: EC50 range against HCV 1b (Range)) lay within 0.01 to 0.999 nM.

On to `COC(=O)N[C@@H](C(=O)N1CCC[C@H]1c1ncc(-c2ccc(-c3ccc(-c4cnc([C@@H]5CCCN5C(=O)Cc5cccnc5)[nH]4)cc3C)cc2)[nH]1)c1ccccc1` [Example 127, methyl ((1R)-2-((2S)-2-(5-(2′-methyl-4′-(2-((2S)-1-(3-pyridinylacetyl)-2-pyrrolidinyl)-1H-imidazol-5-yl)-4-biphenylyl)-1H-imidazol-2-yl)-1-pyrrolidinyl)-2-oxo-1-phenylethyl)carbamate], for which the EC50 under setting [1] was 0.01 to 0.999 nM.

On to `COC(=O)N[C@@H](C(=O)N1CCC[C@H]1c1ncc(-c2ccc(-c3ccc(-c4cnc([C@@H]5CCCN5C(=O)[C@@H]5CCCO5)[nH]4)cc3C)cc2)[nH]1)c1ccccc1` [Example 128, methyl ((1R)-2-((2S)-2-(5-(2′-methyl-4′-(2-((2S)-1-((2S)-tetrahydro-2-furanylcarbonyl)-2-pyrrolidinyl)-1H-imidazol-5-yl)-4-biphenylyl)-1H-imidazol-2-yl)-1-pyrrolidinyl)-2-oxo-1-phenylethyl)carbamate], for which the EC50 under setting [1] lay in the range of 0.01 to 0.999 nM.

Turning to `CN(C)[C@@H](C(=O)N1CCC[C@H]1c1ncc(-c2ccc(-c3ccc(-c4cnc([C@@H]5CCCN5C(=O)[C@@H](c5ccccc5)N(C)C)[nH]4)cc3C(F)(F)F)cc2)[nH]1)c1ccccc1` [Example 130, (1R,1′R)-2,2′-((2-(trifluoromethyl)-4,4′-biphenyldiyl)bis(1H-imidazole-5,2-diyl(2S)-2,1-pyrrolidinediyl))bis(N,N-dimethyl-2-oxo-1-phenylethanamine)], under setting [1], the EC50 fell in the range of 0.01 to 0.999 nM.

For `COC(=O)N[C@@H](C(=O)N(C)[C@@H](C)c1ncc(-c2ccc(-c3ccc(-c4cnc([C@@H]5CCCN5C(=O)[C@@H](c5ccccc5)N(C)C)[nH]4)cc3)cc2)[nH]1)c1ccccc1` [Example 131.1-1, methyl((1R)-2-(((1S)-1-(5-(4′-(2-((2S)-1-((2R)-2-(dimethylamino)-2-phenylacetyl)-2-pyrrolidinyl)-1H-imidazol-5-yl)-4-biphenylyl)-1H-imidazol-2-yl)ethyl)(methyl)amino)-2-oxo-1-phenylethyl)carbamate], the EC50 under setting [1] lay within 0.01 to 0.999 nM.

Regarding `COC(=O)N[C@@H](C(=O)N(C)[C@@H](C)c1ncc(-c2ccc(-c3ccc(-c4cnc([C@@H]5CCCN5C(=O)[C@@H](c5ccccc5)N5CCCCC5)[nH]4)cc3)cc2)[nH]1)c1ccccc1` [Example 131.1-2, methyl((1R)-2-(methyl((1S)-1-(5-(4′-(2-((2S)-1-((2R)-2-phenyl-2-(1-piperidinyl)acetyl)-2-pyrrolidinyl)-1H-imidazol-5-yl)-4-biphenylyl)-1H-imidazol-2-yl)ethyl)amino)-2-oxo-1-phenylethyl)carbamate], under setting [1], the EC50 was 0.01 to 0.999 nM.

For the molecule `CN(C)[C@@H](C(=O)N1CCC[C@H]1c1ncc(-c2ccc(-c3ccc(-c4cnc([C@@H]5CCCN5C(=O)[C@@H](c5ccccc5)N(C)C)[nH]4)cn3)cc2)[nH]1)c1ccccc1` [Example 132, (1R)-2-((2S)-2-(5-(6-(4-(2-((2S)-1-((2R)-2-(dimethylamino)-2-phenylacetyl)-2-pyrrolidinyl)-1H-imidazol-5-yl)phenyl)-3-pyridinyl)-1H-imidazol-2-yl)-1-pyrrolidinyl)-N,N-dimethyl-2-oxo-1-phenylethanamine], the EC50 under setting [1] fell in the range of 0.01 to 0.999 nM.

In the case of `O=C([C@H](O)c1ccccc1)N1CCC[C@H]1c1ncc(-c2ccc(-c3ccc(-c4cnc([C@@H]5CCCN5C(=O)[C@H](O)c5ccccc5)[nH]4)cn3)cc2)[nH]1` [Example 133, (1R)-2-((2S)-2-(5-(6-(4-(2-((2S)-1-((2R)-2-hydroxy-2-phenylacetyl)-2-pyrrolidinyl)-1H-imidazol-5-yl)phenyl)-3-pyridinyl)-1H-imidazol-2-yl)-1-pyrrolidinyl)-2-oxo-1-phenylethanol], the EC50 under setting [1] fell in the range of 1 to 99 nM.

As for `COC(=O)N[C@@H](C(=O)N1CCC[C@H]1c1ncc(-c2ccc(-c3ccc(-c4cnc([C@@H]5CCCN5C(=O)[C@H](NC(=O)OC)c5ccccc5)[nH]4)cn3)cc2)[nH]1)c1ccccc1` [Example 134, methyl ((1R)-2-((2S)-2-(5-(6-(4-(2-((2S)-1-((2R)-2-((methoxycarbonyl)amino)-2-phenylacetyl)-2-pyrrolidinyl)-1H-imidazol-5-yl)phenyl)-3-pyridinyl)-1H-imidazol-2-yl)-1-pyrrolidinyl)-2-oxo-1-phenylethyl)carbamate], the EC50 under setting [1] was 0.01 to 0.999 nM.
